Patent US20040044006A1, “Methods of use of quinolone compounds against pneumococcal and haemophilus bacteria” (priority 1999, published 2004)
≈ marks a conversion by molar mass, not a printed value. Where “and” joins values, the source holds several entries; their conditions need not be identical. Equal values may be shown once. Read-outs that look alike come from different tables or passages of the source.

Assays:
[1] = system: quinolone susceptible pneumococci (ciprofloxacin MICs ≦4.0 μg/ml); assay: Agar dilution MICs of 207 quinolone susceptible pneumococcal strains; assay type: cell-based, Streptococcus pneumoniae; details: Streptococcus pneumoniae; for MIC90: read-out: MIC90
How it was run: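 Agar dilution MICs by prior methods on Mueller-Hinton agar with 5% sheep blood; S. pneumoniae ATCC 49619 among QC strains each run. Isolates were recent U.S. strains plus some from South Africa, Europe and Korea.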

[2] = system: pneumococci (5 quinolone susceptible and 1 resistant strains); assay: Post-antibiotic effect (PAE) testing; assay type: cell-based, Streptococcus pneumoniae
How it was run: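 Pneumococci (~5×10^6 cfu/ml) in MHB with 5% lysed horse blood were exposed 1 h at 35 °C, the quinolone-resistant strain at 5×MIC, then diluted 1:1000. Viable counts every 2 h until McFarland #1 turbidity. PAE = T − C, the 1 log10 regrowth time versus untreated control; mean of two assays ±SD.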

[3] = system: quinolone-resistant Haemophilus influenzae strains; assay: Microdilution MIC determination in HTM for quinolone-resistant Haemophilus influenzae strains; assay type: cell-based
How it was run: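 Broth microdilution in HTM, inoculum from 24 h chocolate agar colonies by direct suspension to a final 3-8×10^5 CFU/ml. Incubated in ambient air at 35° C. for 20-24 hours; MIC read as the lowest concentration with no growth.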

pneumococcal strains = assay: Microbroth dilution MICs of strains tested by time-kill and PAE; assay type: cell-based; details: Streptococcus pneumoniae
How it was run: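 S. pneumoniae ATCC 49619 served as control in each run. For the 12 time-kill and 6 PAE strains, MICs came from NCCLS microbroth dilution using cation-adjusted Mueller-Hinton broth plus 5% lysed defibrinated horse blood.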

[4] = system: methicillin-susceptible and -resistant Staphylococcus aureus, methicillin-resistant Staphylococcus epidermidis and S. pneumoniae; details: previous studies; cited from earlier work
[5] = agar dilution, Penicillin I strains
[6] = agar dilution, Penicillin I strains, read-out: MIC range
[7] = agar dilution, Penicillin R strains
[8] = agar dilution, Penicillin S strains
[9] = agar dilution, all 207 strains (64 penicillin susceptible, 68 intermediate, 75 resistant)
[10] = 5×MIC, quinolone resistant strain
[11] = 10×MIC for 1 h, range over 5 quinolone susceptible strains
[12] = 9 quinolone-resistant Haemophilus influenzae strains
[13] = strain 1 (S) penicillin susceptible, read-out: Microdilution MIC
[14] = strain 2 (S) penicillin susceptible, read-out: Microdilution MIC
[15] = strain 3 (S) penicillin susceptible, quinolone-resistant, read-out: Microdilution MIC
[16] = strain 4 (S) penicillin susceptible, quinolone-resistant, read-out: Microdilution MIC
[17] = strain 5 (I) penicillin intermediate, read-out: Microdilution MIC
[18] = strain 6 (I) penicillin intermediate, read-out: Microdilution MIC
[19] = strain 7 (I) penicillin intermediate, read-out: Microdilution MIC
[20] = strain 8 (I) penicillin intermediate, read-out: Microdilution MIC
[21] = strain 9 (R) penicillin resistant, read-out: Microdilution MIC
[22] = strain 10 (I), read-out: Microdilution MIC
[23] = strain 11 (R) penicillin resistant, read-out: Microdilution MIC
[24] = strain 12 (R) penicillin resistant, read-out: Microdilution MIC
[25] = agar dilution, Penicillin R strains, read-out: MIC range
[26] = agar dilution, Penicillin S strains, read-out: MIC range

Row | SMILES | MIC50 [1, 5] | MIC90 [1, 5] | MIC [1, 6] | MIC50 [1, 7] | MIC90 [1, 7] | MIC50 [1, 8] | MIC90 [1, 8] | MIC90 [1, 9] | PAE [2, 10] | PAE [2, 11] | MIC50 [3, 12] | MIC Range [3, 12] | MIC (pneumococcal strains; [13]) | MIC (pneumococcal strains; [14]) | MIC (pneumococcal strains; [15]) | MIC (pneumococcal strains; [16]) | MIC (pneumococcal strains; [17]) | MIC (pneumococcal strains; [18]) | MIC (pneumococcal strains; [19]) | MIC (pneumococcal strains; [20]) | other results
1 | CO/N=C1\CN(c2nc3c(cc2F)c(=O)c(C(=O)O)cn3C2CC2)CC1CN (racemic) [Gemifloxacin, (R,S)-7-(3-aminomethyl-4-methoxyiminopyrrolidin-1-yl)-1-cyclopropyl-6-fluoro-4-oxo-1,4-dihydro-1,8-naphthyridine-3-carboxylic acid] | 0.03 µg/mL (≈ 0.077 µM) | 0.06 µg/mL (≈ 0.154 µM) | 0.008 to 0.25 µg/mL (≈ 0.0205 to 0.642 µM) | 0.03 µg/mL (≈ 0.077 µM) | 0.06 µg/mL (≈ 0.154 µM) | 0.03 µg/mL (≈ 0.077 µM) | 0.03 µg/mL (≈ 0.077 µM) | 0.06 µg/mL (≈ 0.154 µM) | 0.9 h | 0.4 to 1.6 h | 0.25 µg/mL (≈ 0.642 µM) | 0.03 to 1.0 µg/mL | 0.016 µg/mL (≈ 0.0411 µM) | 0.016 µg/mL (≈ 0.0411 µM) | 0.5 µg/mL (≈ 1.28 µM) | 0.25 µg/mL (≈ 0.642 µM) | 0.03 µg/mL (≈ 0.077 µM) | 0.016 µg/mL (≈ 0.0411 µM) | 0.016 µg/mL (≈ 0.0411 µM) | 0.016 µg/mL (≈ 0.0411 µM) | MIC50 [1, 9]: 0.03 µg/mL (≈ 0.077 µM); MIC ([1]; read-out: MIC range, agar dilution, Penicillin R strains): 0.004 to 0.125 µg/mL (≈ 0.0103 to 0.321 µM); MIC ([1]; read-out: MIC range, agar dilution, Penicillin S strains): 0.008 to 0.125 µg/mL (≈ 0.0205 to 0.321 µM); MIC Range ([3]; 9 quinolone-resistant Haemophilus influenzae strains, listed as gemifloxacin): ≤ 1.0 µg/mL; MIC ([3]; 9 quinolone-resistant Haemophilus influenzae strains, read-out: highest MIC): 1 µg/mL (≈ 2.57 µM); MIC ([3]; Haemophilus influenzae, read-out: MICs, strain 1, GyrA S84→L, ParC S133→A N138→S, GyrB None, ParE None): 0.03 µg/mL (≈ 0.077 µM); MIC ([3]; Haemophilus influenzae, read-out: MICs, strain 2, GyrA S84→F, ParC None, GyrB None, ParE S458→L): 0.125 µg/mL (≈ 0.321 µM); MIC ([3]; Haemophilus influenzae, read-out: MICs, strain 3, GyrA S84→L, ParC S84→I, GyrB None, ParE None): 0.125 µg/mL (≈ 0.321 µM); MIC ([3]; Haemophilus influenzae, read-out: MICs, strain 4, GyrA S84→F D88→N, ParC D83→N, GyrB None, ParE T459→S): 0.25 µg/mL (≈ 0.642 µM); MIC ([3]; Haemophilus influenzae, read-out: MICs, strain 5, GyrA S84→Y, ParC E88→K, GyrB Q468→R, ParE G405→S): 0.25 µg/mL (≈ 0.642 µM); MIC ([3]; Haemophilus influenzae, read-out: MICs, strain 6, GyrA S84→L A117→E, ParC S84→R, GyrB None, ParE D420→N): 0.5 µg/mL (≈ 1.28 µM); MIC ([3]; Haemophilus influenzae, read-out: MICs, strain 7, GyrA S84→L A117→E, ParC S84→R, GyrB None, ParE D420→N): 0.5 µg/mL (≈ 1.28 µM); MIC ([3]; Haemophilus influenzae, read-out: MICs, strain 8, GyrA S84→L A117→E, ParC S84→R, GyrB None, ParE D420→N): 0.5 µg/mL (≈ 1.28 µM); MIC (pneumococcal strains; broth MIC, quinolone resistant PAE strain, read-out: MIC against the quinolone resistant strain tested for PAE): 0.25 µg/mL (≈ 0.642 µM); MIC (pneumococcal strains; [21]): 0.03 µg/mL (≈ 0.077 µM); MIC (pneumococcal strains; [22]): 0.016 µg/mL (≈ 0.0411 µM); MIC (pneumococcal strains; [23]): 0.016 µg/mL (≈ 0.0411 µM); MIC (pneumococcal strains; [24]): 0.03 µg/mL (≈ 0.077 µM); fold more active than ciprofloxacin, ofloxacin, sparfloxacin and trovafloxacin [4]: 32 to 64 fold and 32-64 fold
2 | Cc1c(F)c(N2CCNC(C)C2)cc2c1c(=O)c(C(=O)O)cn2C1CC1 (centres unmarked) [Grepafloxacin, grepafloxacin] | 0.125 µg/mL (≈ 0.348 µM) | 0.5 µg/mL (≈ 1.39 µM) | 0.03 to 0.5 µg/mL (≈ 0.0835 to 1.39 µM) | 0.25 µg/mL (≈ 0.696 µM) | 0.5 µg/mL (≈ 1.39 µM) | 0.125 µg/mL (≈ 0.348 µM) | 0.5 µg/mL (≈ 1.39 µM) | 0.5 µg/mL (≈ 1.39 µM) | 1.5 h | 0.3 to 2.6 h | 1 µg/mL (≈ 2.78 µM) | 0.25 to 4.0 µg/mL | 0.06 µg/mL (≈ 0.167 µM) | 0.06 µg/mL (≈ 0.167 µM) | 16 µg/mL (≈ 44.5 µM) | 8 µg/mL (≈ 22.3 µM) | 0.125 µg/mL (≈ 0.348 µM) | 0.125 µg/mL (≈ 0.348 µM) | 0.125 µg/mL (≈ 0.348 µM) | 0.125 µg/mL (≈ 0.348 µM) | MIC [1, 25]: 0.03 to 0.5 µg/mL (≈ 0.0835 to 1.39 µM); MIC [1, 26]: 0.03 to 1 µg/mL (≈ 0.0835 to 2.78 µM); MIC50 [1, 9]: 0.125 µg/mL (≈ 0.348 µM); MIC (pneumococcal strains; [21]): 0.25 µg/mL (≈ 0.696 µM); MIC (pneumococcal strains; [22]): 0.125 µg/mL (≈ 0.348 µM); MIC (pneumococcal strains; [23]): 0.125 µg/mL (≈ 0.348 µM); MIC (pneumococcal strains; [24]): 0.25 µg/mL (≈ 0.696 µM)
3 | C[C@@H]1CN(c2c(F)c(N)c3c(=O)c(C(=O)O)cn(C4CC4)c3c2F)C[C@H](C)N1 [Sparfloxacin, sparfloxacin] | 0.5 µg/mL (≈ 1.27 µM) | 0.5 µg/mL (≈ 1.27 µM) | 0.06 to 2 µg/mL (≈ 0.153 to 5.1 µM) | 0.5 µg/mL (≈ 1.27 µM) | 0.5 µg/mL (≈ 1.27 µM) | 0.5 µg/mL (≈ 1.27 µM) | 1 µg/mL (≈ 2.55 µM) | 0.5 µg/mL (≈ 1.27 µM) | 1.5 h | 0.3 to 2.0 h | 1 µg/mL (≈ 2.55 µM) | 0.25 to 8.0 µg/mL | 0.125 µg/mL (≈ 0.319 µM) | 0.25 µg/mL (≈ 0.637 µM) | 32 µg/mL (≈ 81.5 µM) | 16 µg/mL (≈ 40.8 µM) | 0.5 µg/mL (≈ 1.27 µM) | 0.25 µg/mL (≈ 0.637 µM) | 0.25 µg/mL (≈ 0.637 µM) | 0.25 µg/mL (≈ 0.637 µM) | MIC [1, 25]: 0.06 to 1 µg/mL (≈ 0.153 to 2.55 µM); MIC [1, 26]: 0.03 to 1 µg/mL (≈ 0.0765 to 2.55 µM); MIC50 [1, 9]: 0.5 µg/mL (≈ 1.27 µM); MIC (pneumococcal strains; [21]): 0.5 µg/mL (≈ 1.27 µM); MIC (pneumococcal strains; [22]): 0.25 µg/mL (≈ 0.637 µM); MIC (pneumococcal strains; [23]): 0.25 µg/mL (≈ 0.637 µM); MIC (pneumococcal strains; [24]): 0.5 µg/mL (≈ 1.27 µM)
4 | N[C@@H]1[C@H]2CN(c3nc4c(cc3F)c(=O)c(C(=O)O)cn4-c3ccc(F)cc3F)C[C@@H]12 [Trovafloxacin, trovafloxacin] | 0.125 µg/mL (≈ 0.3 µM) | 0.25 µg/mL (≈ 0.6 µM) | 0.016 to 1 µg/mL (≈ 0.0384 to 2.4 µM) | 0.125 µg/mL (≈ 0.3 µM) | 0.25 µg/mL (≈ 0.6 µM) | 0.125 µg/mL (≈ 0.3 µM) | 0.25 µg/mL (≈ 0.6 µM) | 0.25 µg/mL (≈ 0.6 µM) | 1.3 h | 0.3 to 3.0 h | 1 µg/mL (≈ 2.4 µM) | 0.25 to 8.0 µg/mL | 0.06 µg/mL (≈ 0.144 µM) | 0.06 µg/mL (≈ 0.144 µM) | 8 µg/mL (≈ 19.2 µM) | 4 µg/mL (≈ 9.61 µM) | 0.06 µg/mL (≈ 0.144 µM) | 0.06 µg/mL (≈ 0.144 µM) | 0.06 µg/mL (≈ 0.144 µM) | 0.125 µg/mL (≈ 0.3 µM) | MIC [1, 25]: 0.03 to 0.25 µg/mL (≈ 0.0721 to 0.6 µM); MIC [1, 26]: 0.03 to 0.5 µg/mL (≈ 0.0721 to 1.2 µM); MIC (pneumococcal strains; [21]): 0.125 µg/mL (≈ 0.3 µM); MIC (pneumococcal strains; [22]): 0.06 µg/mL (≈ 0.144 µM); MIC (pneumococcal strains; [23]): 0.06 µg/mL (≈ 0.144 µM); MIC (pneumococcal strains; [24]): 0.125 µg/mL (≈ 0.3 µM)
